Results published in patent US20080064675A1, “Use of Aromatic flavoring agents with high melting point as solubilizing agents” (priority 2005, published 2008).

Assay: trans-anethole and vanillin in compositions of modafinil (Example 3)
Assay type: physicochemical
Description: 200 mg of modafinil were weighted in two test tubes (A and B). 2 mL of benzyl alcohol were added to test tube A and 200 mg of vanillin, 2 mL of anethole and 2 mL of benzyl alcohol were added to test tube B. The test tubes were stirred and heated to 60° C. Further, the tubes were cooled at room temperature.

NC(=O)C[S+]([O-])C(c1ccccc1)c1ccccc1 (centres unmarked) [modafinil]
crystallization on cooling at room temperature (tube A: 200 mg in 2 mL benzyl alcohol): promptly crystallized | crystallization after cooling at room temperature (tube B: 200 mg vanillin, 2 mL anethole and 2 mL benzyl alcohol, 12 hours after cooling): no crystals were noted
